Assay results as given in patent US20080058310A1, “High-density lipoprotein-cholesterol level elevating agent” (Takeda Pharmaceutical Company Limited, priority 2000, published 2008).

Key:
[1] = tested on: WHHL (Watanabe heritable hyperlipidemic) rabbits; experiment: Blood lipid levels in WHHL (LDL receptor-deficient) rabbits fed the compound in feedstuff for 14 days (Test Example 2); format: in vivo, rabbit; details: Means ± SEM (n = 6)
Description: WHHL (Watanabe heritable hyperlipidemic) rabbits (2 to 3 months-old, four male, eight female), LDL receptor-deficient animal were used. The body weight was measured. Blood was then taken from the ear central artery, and the total cholesterol (TC) and triglyceride (TG) in blood plasma were measured using Wako Pure Chemical kit (manufactured by Wako Pure Chemicals, Inc.) and an autoanalyzer (Hitachi 7070). The animals were divided into two groups, each of which consisted of six animals. The subject compound was mixed with a basic feedstuff (RC-4, Oriental Yeast, Co., Ltd) in an amount of 0.2%, and the mixed feedstuff was fed to the animals in an amount of 120 g per a day (corresponds to the amount of 100 mg/kg/day). To the control group was fed basic feedstuff in an amount of 120 g per a day. The blood lipid levels at the starting of administration and after finishing the administration for 14 days are shown in Table 2 and Table 3, respectively.

common marmosets = experiment: Plasma lipid change in common marmosets after four days of oral administration (Test Example 1); format: in vivo, common marmoset; details: male common marmosets, 100 mg/kg/day oral once a day for four days, blood plasma on fifth day, Means ± SEM (N = 5)
Description: Male common marmosets (300-500 g) were bred while feeding normal feed (CMS-1, CLEA Japan, Inc.) and water freely. The body weight was measured. Blood was taken from the femoral vein, and the total cholesterol (TC), HDL-cholesterol (HDL-C) and triglyceride (TG) in blood plasma were measured using Wako Pure Chemical kit (manufactured by Wako Pure Chemicals, Inc.) and an autoanalyzer (Hitachi 7070). The animals were devided into groups, each of which consisted of five animals. The subject compound, as a suspension in 0.5% methylcellulose, was forced oral administration to the animals once a day and for four days. On the morning of the fifth day, the body weight was measured. Blood was then taken from the femoral vein, and the total cholesterol, triglyceride and HDL-cholesterol in blood plasma were measured according to the above-mentioned method. The non-HDL-C was calculated by subtracting the HDL-cholesterol from the total cholesterol.

[2] = 0.2% in feed (corresponds to 100 mg/kg/day), after 14 days relative to initial
[3] = 0.2% in feed (corresponds to 100 mg/kg/day), after administration for 14 days
[4] = blood plasma at the starting of administration (baseline) of the 0.2% in feed group

Q: Which “TC % of initial” value [1, 2] does the source give for COc1cccc([C@H]2O[C@H](CC(=O)N3CCC(CC(=O)O)CC3)C(=O)N(CC(C)(C)COC(C)=O)c3ccc(Cl)cc32)c1OC [subject compound, N-[[(3R,5S)-1-(3-acetoxy-2,2-dimethylpropyl)-7-chloro-5-(2,3-dimethoxyphenyl)-2-oxo-1,2,3,5-tetrahydro-4,1-benzoxazepin-3-yl]acetyl]piperidine-4-acetic acid] here?
A: Its value is 85 ± 2 %.

Q: What about the “TG % of initial” value [1, 2] of the same molecule?
A: The value was 40 ± 3 %.

Q: What about the “TC (mg/dL) end” value [1, 3] of the same molecule?
A: The value was 715 ± 36 mg/dL.

Q: What about the “TG (mg/dL) end” value [1, 3] of the same molecule?
A: The value was 107 ± 10 mg/dL.

Q: And the “TC (mg/dL) initial” value [1, 4]?
A: The value was 838 ± 45 mg/dL.

Q: And the “TG (mg/dL) initial” value [1, 4]?
A: The value was 272 ± 24 mg/dL.

Q: What about the “HDL-C (%-change)” value (common marmosets) of the same molecule?
A: The value was 16.2 ± 10%.

Q: What about the “TG (%-change)” value (common marmosets) of the same molecule?
A: The value was −37.6 ± 17%.

Q: What about the “Non-HDL-C (%-change)” value (common marmosets; non-HDL-C = total cholesterol minus HDL-cholesterol) of the same molecule?
A: Its value is −40.4 ± 4 %.
